{"source": "patent US20260248872A1", "about": "“WITHANIA SOMNIFERA COMPOSITION FOR IMPROVING MEMORY AND COGNITION” (ARJUNA NATURAL PRIVATE LIMITED, priority 2023, published 2026)", "format_in_all_cases": "in vivo, rat", "key": {"male SD rats [1]": {"test_system": "male SD rats", "experiment": "Elevated plus maze, transfer latency, scopolamine-induced amnesia", "conditions": "scopolamine 0.6 mg/kg i.p., Ashwagandha extract 100 mg/kg, Piracetam 200 mg/kg, 10 days, Mean ± SEM (n = 6)", "description": "(§1) Twenty-four male SD rats were divided into four groups comprising of 6 rats in each group. The animals were treated as per the following details: • Group 1: Normal control (0.5% Polysorbate 80; 10 ml/kg) • Group 2: Untreated control (Scopolamine; 0.6 mg/kg i.p.) • Group 3: Piracetam—200 mg/kg+Scopolamine 0.6 mg/kg i.p. • Group 4: Ashwagandha extract (Sample 4)—100 mg/kg+Scopolamine 0.6 mg/kg i.p.\n(§2) The vehicle/extract/standard was administered daily for 10 consecutive days. Habituation to swimming was conducted on day 6 of the experiment. Scopolamine was injected 30 minutes after the vehicle/extract/standard to the designated groups. The following behavioural test was conducted at the end of the treatment by using Elevated plus maze apparatus, Y maze model and Cooks pole climbing method.\nThe elevated plus-maze consists of two open arms and two closed arms (50×10×40 cm each) were elevated to a height of 50 cm. The rats were placed individually at the end of an open arm facing away from the central platform, and the time taken by them to move from there to either of the close arm transfer latency was recorded. […] The rats were allowed to explore the maze for another 10 seconds and then return to the home cage. […] On the 10th day Standard and test substances were administered orally 30 mins before scopolamine injection transfer latency was recorded."}, "male SD rats [2]": {"test_system": "male SD rats", "experiment": "Cooks pole climbing test, conditioned avoidance, scopolamine-induced amnesia", "conditions": "scopolamine 0.6 mg/kg i.p., Ashwagandha extract 100 mg/kg, Piracetam 200 mg/kg, Mean ± SEM (n = 6)", "description": "as §1, §2\nPole climbing test: Rats were trained in such a way that the animal had to climb the pole (shock free zone) within 30 s to avoid a shock. The shock was preceded by a buzzer that lasted for 15 s. The animals were trained to climb the pole at the sound of the buzzer (conditioned avoidance response). At particular intervals, 20 trials were given for each animal and average of the shock avoidance and mistakes were recorded. Trained animals were assayed by conditioned avoidance responses."}, "male SD rats [3]": {"test_system": "male SD rats", "experiment": "Y-Maze model, scopolamine-induced amnesia", "conditions": "scopolamine 0.6 mg/kg i.p., Ashwagandha extract 100 mg/kg, Piracetam 200 mg/kg, Mean ± SEM (n = 6)", "description": "as §1, §2\nY-Maze model—The treatment was started (as per the groups mentioned) for animals from the day 1 and continues up to day 8. […] Briefly, each time animals were placed just inside arm B facing away from the center and allowed to move through apparatus for 8 min, while being monitored by tracking system. […] Each arm entry (defined as all four paws entering arm) was scored and recorded. Animals were returned to home cage and numbers of fecal pellets were counted in the Y maze and data was recorded. […]"}, "male SD rats [4]": {"test_system": "male SD rats", "experiment": "Morris Water Maze (MWM), scopolamine-induced amnesia", "conditions": "scopolamine 0.6 mg/kg i.p., Ashwagandha extract 100 mg/kg, Piracetam 200 mg/kg, mean", "description": "as §1, §2\nThe MWM consists of a circular pool (180 cm in diameter and 60 cm in height) with a featureless inner surface. The circular pool was filled with water (23±1° C.) up to a height of 40 cm. The pool was divided into four quadrants of equal area. The escape platform was centered in one of the four quadrants. The day before the training experiments (day 6), animals were habituated to swim training for 60 s in the absence of the platform. The animals were treated with vehicle/extract/standard drug for 6 days. On day 7, 30 min after the administration of vehicle/extract/standard drug, scopolamine (0.6 mg/kg, i.p.) was injected. Training session was started 30 min after scopolamine administration. The rats were given four trial sessions each day for four consecutive days (day 7-10), with an inter-trial interval of 15 min, and the escape latencies were recorded. Once the rat located the platform, it was permitted to remain on it for 15 s to observe the vital clues. […] On day 11, the probe test was performed by removing the platform from the pool and a cut-off time of 60 s was kept for exploring. The time spent by the animal in the target quadrant was recorded. The higher value of the time spent in quadrant indicate better retention ability as the animal remembered the position of the platform."}}, "data": [{"smiles": "NC(=O)CN1CCCC1=O", "note": "[Piracetam]", "values": [{"measurement": "Transfer Latency", "setting": "male SD rats [1]", "result": "7.00 ± 0.89", "unit": "s"}, {"measurement": "Avoidance/Escape latency", "setting": "male SD rats [2]", "result": "6.00 ± 0.89", "unit": "s"}, {"measurement": "Number of Arm entries", "setting": "male SD rats [3]", "result": "5.00 ± 0.89"}, {"measurement": "Retention Latency", "setting": "male SD rats [3]", "result": "2.07 ± 0.46", "unit": "min"}, {"measurement": "Time to reach escape platform on training days", "setting": "male SD rats [4]; MWM Day 7", "result": 74.25, "unit": "s"}, {"measurement": "Time to reach escape platform on training days", "setting": "male SD rats [4]; MWM Day 8", "result": 47.33, "unit": "s"}, {"measurement": "Time to reach escape platform on training days", "setting": "male SD rats [4]; MWM Day 9", "result": 9.83, "unit": "s"}, {"measurement": "Time to reach escape platform on training days", "setting": "male SD rats [4]; MWM Day 10", "result": 5.25, "unit": "s"}]}]}
